The text below walks through data of patent publication US12582717B2, “Protein based excipient for active pharmaceutical ingredients” (ROUSSELOT B.V., priority 2016, dated 2026).

≈ marks a conversion by molar mass, not a printed value. Where “and” joins values, the source holds several entries; their conditions need not be identical. Identical values can stand only once. Like-named read-outs stand apart in the source and are kept apart here.

Data set [1] in a line: Equilibrium solubility of Flubendazole in FaSSGF (RP-HPLC). Type of data set: physicochemical. As to conditions: FaSSGF (fasted state simulated gastric fluid), pH 1.6, fassgf or other biorelevant, thermodynamic from solid; FaSSGF (1.6 pH), excess Flubendazole rotated up to 72 hours; read-out: equilibrium solubility in FaSSGF medium. The protocol: The dissolution profile and supersaturation state (i.e., the available concentration) was tested using a dissolution media which simulates the juice present in the human stomach before (i.e. fasted state) eating food; namely FaSSGF (1.6 pH) available from Bio-relevant®. A suitable method for determining the concentration is Reversed phase High-performance liquid chromatography (RP-HPLC), which separates molecules based on hydrophobicity causing different retention times as they flow out the column. The further working principles of RP-HPLC are known in the art. The RP-HPLC set-up used an Eclipse Zorbax Agilent 5 μm (4.6×150 mm) column with a flow Rate of 1 ml/min. The injection volume was 20 μl with the mobile phase containing ACN/TFA 0.1% (55:45) and an elution time of Flubendazole about ±1.9 min. The wavelength for measurements was set at 280 nm.
Prior to the experiments, the solubility of Flubendazole in FaSSGF was determined to serve as the baseline reference value. The reference solution was prepared by bringing an excess of Flubendazole in 8 ml FaSSGF solution. This solution was rotated during 72 hours and a 1 ml sample was taken every 24 hours. These reference samples were filtered through a Polytetrafluoroethylene (PTFE) 0.45 μm filter to determine the concentration of Flubendazole through the tested RP-HPLC method. […]

The target in a further data set is T1, BSA (Bos taurus, UniProt P02769).
T1 construct: from tissue; host or cells: bovine origin (tissue or fluid not specified)
T1 sequence (P02769 25-607): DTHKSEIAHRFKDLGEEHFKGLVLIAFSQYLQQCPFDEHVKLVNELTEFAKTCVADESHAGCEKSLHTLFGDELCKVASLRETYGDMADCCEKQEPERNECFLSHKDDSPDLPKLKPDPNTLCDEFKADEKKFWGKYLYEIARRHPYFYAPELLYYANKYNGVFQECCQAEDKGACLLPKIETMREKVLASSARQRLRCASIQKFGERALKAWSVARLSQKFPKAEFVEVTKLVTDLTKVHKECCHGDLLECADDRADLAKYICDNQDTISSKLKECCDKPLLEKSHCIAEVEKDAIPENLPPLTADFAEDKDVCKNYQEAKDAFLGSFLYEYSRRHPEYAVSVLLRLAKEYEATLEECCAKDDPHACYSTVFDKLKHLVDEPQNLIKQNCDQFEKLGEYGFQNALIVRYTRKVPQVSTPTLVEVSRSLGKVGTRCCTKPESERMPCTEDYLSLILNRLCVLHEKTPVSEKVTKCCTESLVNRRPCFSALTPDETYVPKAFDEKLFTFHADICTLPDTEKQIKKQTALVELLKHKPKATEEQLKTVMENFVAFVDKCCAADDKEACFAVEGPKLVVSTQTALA
As to the kind of experiment: Tryptophan quenching binding of Flubendazole to BSA. More on the design: species or system bovine. As to conditions: read-out: dissociation constant Kd. An excerpt:
For the following experiment the binding strength of a protein based excipient to a model API was verified. For the purposes of this experiment, BSA was the protein source, Flubendazole was used as the model API, formic acid served as the solvent and spray drying was chosen as the drying method.

Data set [2] is described as follows: Solubility statements in the description. Type of data set: physicochemical.
Data set [3] is described as follows: Dissolution of solvent-cast protein films (Example 1). The data set is classed as physicochemical. The following applies: film cast from 5% solution in formic acid; 37° C., 0.1N HCl pH 1.5 for 90 minutes, then pH 6.8 up to 330 minutes. The protocol: In the following experiment 5% solutions of various proteins were dissolved in formic acid and solvent-casted into protein films. The proteins were selected from gelatin, BSA (albumin), pea, soy, whey and zein (corn). The protein films were then dissolved at 37° C. in 0.1N HCl with a pH of 1.5 for 90 minutes, after which the pH was adjusted to 6.8 over a time period up to 330 minutes.
The dissolution of the protein films was evaluated using spectrophotometry (absorbance at 280 nm), and plotted as a function of time.

With `COC(=O)Nc1nc2cc(C(=O)c3ccc(F)cc3)ccc2[nH]1` [Flubendazole], in data set [1], the solubility thermodynamic at 72 h was 0.0112 mg/mL (≈ 35.7 µM). Moreover, the dissociation constant Kd on BSA (pH 1.0) was 234 µM and ~234 µM; on BSA (pH 4.0) it was 133 µM and ~133 µM; on BSA (pH 7.0), 116 µM and ~116 µM.

Take `CCCS(=O)(=O)Nc1ccc(F)c(C(=O)c2c[nH]c3ncc(-c4ccc(Cl)cc4)cc23)c1F` [Vemurafenib]: the solubility in methanol entry in data set [2] is given as “does not dissolve”.

For the compound Zein, the “dissolution level of protein film” value in data set [3] is reported as “about 10%”. The same measure, in the same setting: under gelatin stands “(near) complete dissolution”.

In general, Kd refers to a measure of binding affinity in units of concentration.
